Results on 1 molecule are retold here after patent US9540314B2, “N-cycloalkyl-N-[(cycloalkenylphenyl)methylene]-(thio) carboxamide derivatives” (BAYER INTELLECTUAL PROPERTY GMBH, priority 2012, dated 2017).

One assay concerns Sphaerotheca fuliginea. Kind of assay: In vivo preventive test on Sphaerotheca fuliginea (powdery mildew on cucurbits). Particulars: 500 ppm, gherkin plants, grading 12 days after contamination. On the procedure: The active ingredients tested are prepared by homogenization in a mixture of acetone/tween/DMSO and then diluted with water to obtain the desired active material concentration.
Gherkin plants (“Vert petit de Paris” variety), sown in starter cups on a 50/50 peat soil-pozzolana substrate and grown at 24° C., are treated at the Z11 cotyledon stage by spraying with the active ingredient prepared as described above. Plants, used as controls, are treated with the mixture of acetone/tween/DMSO/water not containing the active material.
After 24 hours, the plants are contaminated by spraying the cotyledons with an aqueous suspension of Sphaerotheca fuliginea spores (100 000 spores per mL). The spores are collected from infected plants. The contaminated gherkin plants are incubated at about 20° C. and at 70-80% relative humidity.
Grading (% of efficacy) is carried out 12 days after the contamination, in comparison with the control plants.
Under these conditions, good (at least 70%) to total protection is observed at a dose of 500 ppm of active ingredient with the following compounds from table A: […]

The next assay deals with Alternaria solani. Kind of assay: In vivo preventive test on Alternaria solani (tomato). The conditions noted are these: 100 ppm, evaluated 3 days after inoculation. The method, then: Solvent: 24.5 parts by weight of acetone
• 24.5 parts by weight of N,N-dimethylacetamide Emulsifier: 1 part by weight of alkylarylpolyglycol ether
To produce a suitable preparation of active compound, 1 part by weight of active compound is mixed with the stated amounts of solvent and emulsifier, and the concentrate is diluted with water to the desired concentration.
To test for preventive activity, young plants are sprayed with the preparation of active compound at the stated rate of application. After the spray coating has dried on, the plants are inoculated with an aqueous spore suspension of Alternaria solani. The plants are then placed in an incubation cabinet at approximately 20° C. and a relative atmospheric humidity of 100%.
The test is evaluated 3 days after the inoculation. 0% means an efficacy which corresponds to that of the untreated control while an efficacy of 100% means that no disease is observed.
Under these conditions, high (at least 90%) protection is observed at a dose of 100 ppm of active ingredient with the following compound from table B: […]

A further assay relates to Alternaria brassicae. Kind of assay: In vivo preventive test on Alternaria brassicae (leaf spot on radish). The conditions noted are these: Table C1, 500 ppm, radish plants, grading 6 days after contamination. On the procedure:
(§1) The active ingredients tested are prepared by homogenization in a mixture of acetone/tween/DMSO, and then diluted with water to obtain the desired active material concentration.
Radish plants (“Pernod Clair” variety), sown in starter cups on a 50/50 peat soil pozzolana substrate and grown at 17° C., are treated at the cotyledon stage by spraying with the active ingredient prepared as described above. Plants, used as controls, are treated with the mixture of acetone/tween/DMSO/water not containing the active material.
After 24 hours, the plants are contaminated by spraying the cotyledons with an aqueous suspension of Alternaria brassicae spores (50 000 spores per mL). The spores are collected from a 15-day-old culture.
The contaminated radish plants are incubated at 20° C. and at 100% relative humidity.
Grading (% of efficacy) is carried out 6 days after the contamination, in comparison with the control plants.
Under these conditions, high (at least 80%) to excellent (at least 90%) protection is observed at a dose of 500 ppm of active ingredient with the following compounds from table C1: […]

A further assay concerns Leptosphaeria nodorum. Kind of assay: In vivo preventive test on Leptosphaeria nodorum (wheat). Particulars: 100 ppm, evaluated 7-9 days after inoculation. On the procedure:
Solvent: 49 parts by weight of N,N-dimethylacetamide
Emulsifier: 1 part by weight of alkylarylpolyglycol ether
To produce a suitable preparation of active compound, 1 part by weight of active compound or active compound combination is mixed with the stated amounts of solvent and emulsifier, and the concentrate is diluted with water to the desired concentration.
To test for preventive activity, young plants are sprayed with the preparation of active compound or active compound combination at the stated rate of application.
After the spray coating has been dried, the plants are sprayed with a spore suspension of Leptosphaeria nodorum. The plants remain for 48 hours in an incubation cabinet at approximately 20° C. and a relative atmospheric humidity of approximately 100%.
The plants are placed in the greenhouse at a temperature of approximately 22° C. and a relative atmospheric humidity of approximately 80%.
The test is evaluated 7-9 days after the inoculation. 0% means an efficacy which corresponds to that of the untreated control, while an efficacy of 100% means that no disease is observed.
Under these conditions, excellent (at least 95%) protection is observed at a dose of 100 ppm of active ingredient with the following compound from table G: […]

The subject of another assay is Pyrenophora teres. Kind of assay: In vivo preventive test on Pyrenophora teres (barley). Particulars: 500 ppm of active ingredient; barley plants, preventive spray; grading 14 days after contamination. A digest of the protocol: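 Barley plants ('Plaisant', 1-leaf stage) were sprayed with compound in acetone/tween/DMSO/water, then inoculated 24 h later with P. teres spores (12 000 spores per mL). Plants were held 48 h at 20° C./100% RH, then 12 days at 70-80% RH. Efficacy (%) was graded 14 days after inoculation relative to solvent-treated controls.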

The subject of the next assay is Puccinia recondita. Kind of assay: In vivo preventive test on Puccinia recondita (brown rust on wheat). The conditions noted are these: 500 ppm of active ingredient; wheat plants, preventive spray; grading 12 days after contamination. A digest of the protocol:
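Wheat ("Scipion") at the 1-leaf stage was sprayed with compound in acetone/tween/DMSO/water, then inoculated 24 h later with Puccinia recondita spores (100 000 spores per mL). Plants were held 24 h at 20° C and 100% RH, then 10 days at 20° C and 70-80% RH. Efficacy (%) was graded 12 days post-inoculation against solvent-treated controls.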

The subject of another assay is Septoria tritici. Kind of assay: In vivo preventive test on Septoria tritici (wheat). Particulars: 500 ppm of active ingredient; wheat plants, preventive spray; grading 24 days after contamination. On the procedure: as §1
Wheat plants (“Scipion” variety), sown in starter cups on a 50/50 peat soil pozzolana substrate and grown at 22° C., are treated at the 1 leaf stage (10 cm height) by spraying with the active ingredient prepared as described above. Plants, used as controls, are treated with the mixture of acetone/tween/DMSO/water not containing the active material.
After 24 hours, the plants are contaminated by spraying the leaves with an aqueous suspension of cryopreserved Septoria tritici spores (500 000 spores per mL). The contaminated wheat plants are incubated for 72 hours at 18° C. and at 100% relative humidity, and then for 21 days at 90% relative humidity.
Grading (% of efficacy) is carried out 24 days after the contamination, in comparison with the control plants.
Under these conditions, good (at least 70%) to total protection is observed at a dose of 500 ppm of active ingredient with the following compounds from table J: […]

With `Cc1nn(C)c(F)c1C(=O)N(C1CC1)C(C)c1ccccc1C1=CCCC1` (racemic) [I.1], the Efficacy turned out to be 100% with Sphaerotheca fuliginea; 94% with Alternaria solani; 98% with Alternaria brassicae; 95% in the assay on Leptosphaeria nodorum; 97% in the assay with Pyrenophora teres; 81% in the assay with Puccinia recondita. This molecule registered an Efficacy in the assay with Septoria tritici of 97%.
